According to patent US20240090503A1, “FUNGICIDAL OXADIAZOLES AND THEIR MIXTURES” (FMC CORPORATION, priority 2020, published 2024):

Columns and labels:
[1] = test system: Phakopsora pachyrhizi (the causal agent of Asian soybean rust); test: Test A: preventive spray on soybean seedlings, Asian soybean rust, visual disease rating; assay type: in vivo; conditions: soybean seedlings; for pest or weed control at 10 µg/mL: Phakopsora pachyrhizi, 216 h, read-out: Test A disease control rating
Text: (§1) General protocol for preparing test suspensions for Tests A-D: the test compounds were first dissolved in acetone in an amount equal to 3% of the final volume and then suspended at the desired concentration (in ppm) in acetone and purified water (50/50 mix by volume) containing 250 ppm of the surfactant PEG400 (polyhydric alcohol esters). The resulting test suspensions were then used in Tests A-D.
(§2) The test suspension was sprayed to the point of run-off on soybean seedlings. The following day the seedlings were inoculated with a spore suspension of Phakopsora pachyrhizi (the causal agent of Asian soybean rust) and incubated in a saturated atmosphere at 22° C. for 24 h and then moved to a growth chamber at 22° C. for 8 days, after which time visual disease ratings were made.
(§3) The test results for Tests A-C presented in Table A below for compounds of Formula 1 illustrate the fungicidal activity of component (a) contributing to the plant disease control utility of compositions comprising component (a) in combination with component (b) according to the present invention. In the Table, a rating of 100 indicates 100% disease control and a rating of 0 indicates no disease control (relative to the controls). A dash (-) indicates the compound was not tested. The test suspensions were sprayed at the concentration listed in the column “Rate in ppm”, unless otherwise indicated. An asterisk “*” next to the rating indicates a 250 ppm test suspension was used, a double asterisk “**” next to the rating indicates a 100 ppm test suspension was used, and a triple asterisk “***” next to the rating indicates a 50 ppm test suspension was used.

[2] = test system: Puccinia recondita f. sp. tritici (the causal agent of wheat leaf rust); test: Test C: preventive spray on wheat seedlings, wheat leaf rust, visual disease rating; assay type: in vivo; conditions: wheat seedlings; for pest or weed control at 10 µg/mL: Puccinia recondita, 168 h, read-out: Test C disease control rating
Text: as §1
as §2, with “on wheat” for “on soybean”, “of Puccinia recondita f. sp. tritici;” for “of Phakopsora pachyrhizi”, “of wheat leaf” for “of Asian soybean”, “at 20°” for “at 22°”, “24 h,” for “24 h”, “for 6” for “for 8”
as §3

[3] = 10 ppm test suspension, 100 = 100% disease control, 0 = no control
[4] = test suspension 10 ppm, 100 = 100% disease control, 0 = no control
[5] = 50 ppm test suspension, 100 = 100% disease control, 0 = no control

SMILES	Test A disease control rating [1, 4] [%]	Test C disease control rating ([2]; test suspension 10 ppm) [%]	other results
CC(C)ON=Cc1cnn(Cc2ccc(-c3noc(C(F)(F)F)n3)cc2)c1 [compound 388]	–	–	Test A disease control rating [1, 3]: 100%; Test C disease control rating [2, 3]: 100%
COCCNC(=O)c1nn(Cc2ccc(-c3noc(C(F)(F)F)n3)cc2)c2ccccc12 [compound 46]	100	100	–
FC(F)(F)c1nc(-c2ccc(Cn3ccc4ccncc43)cc2)no1 [compound 135]	96	0	–
COC(=O)c1ccc2nn(Cc3ccc(-c4noc(C(F)(F)F)n4)cc3)nc2c1 [compound 23]	100	100	–
CNC(=O)c1cnn(Cc2ccc(-c3noc(C(F)(F)F)n3)cc2)c1 [compound 61]	100	100	–
CC(C)=CCOC(=O)c1cnn(Cc2ccc(-c3noc(C(F)(F)F)n3)cc2)c1 [compound 169]	100	99	–
N#Cc1c(Br)cnn1Cc1ccc(-c2noc(C(F)(F)F)n2)s1 [compound 77]	–	–	Test A disease control rating ([1]; test suspension 50 ppm): 100%; Test C disease control rating ([2]; test suspension 50 ppm): 100%
FC(F)(F)c1nc(-c2ccc(Cn3ncc4c(Cl)cc(Br)cc43)cc2)no1 [compound 53]	0	9	–
CCOC(=O)Nc1cnn(Cc2ccc(-c3noc(C(F)(F)F)n3)cc2)c1 [compound 443]	–	–	Test A disease control rating [1, 3]: 100%; Test C disease control rating [2, 3]: 74%
CCONC(=O)c1cnn(Cc2ccc(-c3noc(C(F)(F)F)n3)cc2)c1 [compound 380]	–	–	Test A disease control rating [1, 3]: 100%; Test C disease control rating [2, 3]: 100%
CCOC(=O)c1cnn(CCc2ccc(-c3noc(C(F)(F)F)n3)cc2)c1 [compound 437]	–	–	Test A disease control rating [1, 3]: 100%; Test C disease control rating [2, 3]: 86%
N#CCNC(=O)c1cnn(Cc2ccc(-c3noc(C(F)(F)F)n3)cc2)c1 [compound 65]	100	100	–
N#CC1CCN(Cc2ccc(-c3noc(C(F)(F)F)n3)cc2)C1 (stereo not shown) [compound 151]	–	–	Test A disease control rating ([1]; test suspension 50 ppm): 100%; Test C disease control rating ([2]; test suspension 50 ppm): 98%
O=C(O)c1cc(C(=O)O)n(Cc2ccc(-c3noc(C(F)(F)F)n3)cc2)n1 [compound 140]	0	0	–
CCN(CC)C(=O)C1=NOC(Cc2ccc(-c3noc(C(F)(F)F)n3)s2)C1 (stereo not shown) [compound 430]	–	–	Test A disease control rating [1, 5]: 100%; Test C disease control rating [2, 5]: 100%
CCOC(=O)c1cc(C)n(Cc2ccc(-c3noc(C(F)(F)F)n3)cc2)n1 [Compound 110, ethyl 5-methyl-1-[[4-[5-(trifluoromethyl)-1,2,4-oxadiazol-3-yl]phenyl]methyl]-1H-pyrazole-3-carboxylate]	–	–	pest or weed control at 10 µg/mL [1, 4]: 100%; pest or weed control at 10 µg/mL ([2]; test suspension 10 ppm): 91%
Cc1cc(C(F)(F)F)n(Cc2ccc(-c3noc(C(F)(F)F)n3)cc2)n1 [compound 127]	0	0	–
C=CCOC(=O)c1cc(C)n(Cc2ccc(-c3noc(C(F)(F)F)n3)cc2)n1 [compound 186]	100	74	–
CC(COC(=O)c1cnn(Cc2ccc(-c3noc(C(F)(F)F)n3)cc2)c1)=NOC1CCCCO1 (stereo not shown) [compound 218]	100	98	–
COc1cc(=O)n(Cc2ccc(-c3noc(C(F)(F)F)n3)cc2)nc1Cl [compound 27]	–	–	Test A disease control rating ([1]; test suspension 50 ppm): 100%; Test C disease control rating ([2]; test suspension 50 ppm): 100%
CONC(=O)c1cnn(Cc2ccc(-c3noc(C(F)(F)F)n3)cc2)c1 [compound 272]	100	100	–

SMILES	Test A disease control rating [1, 4] [%]	Test C disease control rating ([2]; test suspension 10 ppm) [%]	other results
COC(=O)c1cccc2cnn(Cc3ccc(-c4noc(C(F)(F)F)n4)cc3)c12 [compound 47]	100	74	–
CCOC(CC(=O)c1cnn(Cc2ccc(-c3noc(C(F)(F)F)n3)cc2)c1)OCC [compound 391]	–	–	Test A disease control rating [1, 3]: 100%; Test C disease control rating [2, 3]: 100%
COC(=O)c1ccc2cn(Cc3ccc(-c4noc(C(F)(F)F)n4)cc3)nc2c1 [compound 42]	100	92	–
Cc1cc2nn(Cc3ccc(-c4noc(C(F)(F)F)n4)cc3)cc2cc1Br [compound 33]	100	68	–
COC(=O)c1cccc2c1cnn2Cc1ccc(-c2noc(C(F)(F)F)n2)cc1 [Compound 49, methyl 1-[[4-[5-(trifluoromethyl)-1,2,4-oxadiazol-3-yl]phenyl]methyl]-1H-indazole-4-carboxylate]	–	–	pest or weed control at 10 µg/mL [1, 4]: 100%; pest or weed control at 10 µg/mL ([2]; test suspension 10 ppm): 100%
CC(C)OC(=O)c1cnn(Cc2ccc(-c3noc(C(F)(F)F)n3)s2)c1 [compound 200]	100	100	–
CCCOC(=O)c1cnn(C(C)c2ccc(-c3noc(C(F)(F)F)n3)s2)c1 (stereo not shown) [compound 248]	100	100	–
COC(=O)c1cccc2cn(Cc3ccc(-c4noc(C(F)(F)F)n4)cc3)nc12 [compound 50]	13	28	–
O=C(NC1CC1)c1cnn(Cc2ccc(-c3noc(C(F)(F)F)n3)cc2)c1 [compound 69]	100	100	–
FC(F)(F)c1nc(-c2ccc(Cn3nc(Br)c4ccccc43)cc2)no1 [compound 112]	92	0	–
COc1ccc2nn(Cc3ccc(-c4noc(C(F)(F)F)n4)cc3)cc2c1 [compound 131]	100	99	–
COc1ccc2c(cnn2Cc2ccc(-c3noc(C(F)(F)F)n3)s2)c1 [compound 195]	100	98	–
CCOC(=O)c1cnn(Cc2cc(-c3noc(C(F)(F)F)n3)cs2)c1 [compound 271]	99	68	–
O=C(COC(=O)c1cnn(Cc2ccc(-c3noc(C(F)(F)F)n3)cc2)c1)c1ccccc1 [compound 244]	100	95	–
O=c1c2ccccc2sn1Cc1ccc(-c2noc(C(F)(F)F)n2)cc1 [compound 155]	60	0	–
CCOC(=O)c1cnn(Cc2cc(OC)c(-c3noc(C(F)(F)F)n3)s2)c1 [compound 336]	0	0	–
N#Cc1nn(Cc2ccc(-c3noc(C(F)(F)F)n3)cc2)c2ccccc12 [compound 104]	100	68	–
Nc1nn(Cc2ccc(-c3noc(C(F)(F)F)n3)cc2)c2ncccc12 [compound 446]	–	–	Test A disease control rating [1, 3]: 99%; Test C disease control rating [2, 3]: 86%
COC(=O)c1nccn(Cc2ccc(-c3noc(C(F)(F)F)n3)cc2)c1=O [compound 423]	–	–	Test A disease control rating [1, 3]: 86%; Test C disease control rating [2, 3]: 80%
FC(F)(F)c1nc(-c2ccc(CN3Cc4ccccc4C3)cc2)no1 [compound 160]	99	98	–
